{"source": "patent US8053574B2", "about": "“Organic compounds” (Novartis AG, priority 2007, dated 2011)"}
{"target": "PI3K γ (Homo sapiens, UniProt P48736)", "sequence (P48736 whole entry)": "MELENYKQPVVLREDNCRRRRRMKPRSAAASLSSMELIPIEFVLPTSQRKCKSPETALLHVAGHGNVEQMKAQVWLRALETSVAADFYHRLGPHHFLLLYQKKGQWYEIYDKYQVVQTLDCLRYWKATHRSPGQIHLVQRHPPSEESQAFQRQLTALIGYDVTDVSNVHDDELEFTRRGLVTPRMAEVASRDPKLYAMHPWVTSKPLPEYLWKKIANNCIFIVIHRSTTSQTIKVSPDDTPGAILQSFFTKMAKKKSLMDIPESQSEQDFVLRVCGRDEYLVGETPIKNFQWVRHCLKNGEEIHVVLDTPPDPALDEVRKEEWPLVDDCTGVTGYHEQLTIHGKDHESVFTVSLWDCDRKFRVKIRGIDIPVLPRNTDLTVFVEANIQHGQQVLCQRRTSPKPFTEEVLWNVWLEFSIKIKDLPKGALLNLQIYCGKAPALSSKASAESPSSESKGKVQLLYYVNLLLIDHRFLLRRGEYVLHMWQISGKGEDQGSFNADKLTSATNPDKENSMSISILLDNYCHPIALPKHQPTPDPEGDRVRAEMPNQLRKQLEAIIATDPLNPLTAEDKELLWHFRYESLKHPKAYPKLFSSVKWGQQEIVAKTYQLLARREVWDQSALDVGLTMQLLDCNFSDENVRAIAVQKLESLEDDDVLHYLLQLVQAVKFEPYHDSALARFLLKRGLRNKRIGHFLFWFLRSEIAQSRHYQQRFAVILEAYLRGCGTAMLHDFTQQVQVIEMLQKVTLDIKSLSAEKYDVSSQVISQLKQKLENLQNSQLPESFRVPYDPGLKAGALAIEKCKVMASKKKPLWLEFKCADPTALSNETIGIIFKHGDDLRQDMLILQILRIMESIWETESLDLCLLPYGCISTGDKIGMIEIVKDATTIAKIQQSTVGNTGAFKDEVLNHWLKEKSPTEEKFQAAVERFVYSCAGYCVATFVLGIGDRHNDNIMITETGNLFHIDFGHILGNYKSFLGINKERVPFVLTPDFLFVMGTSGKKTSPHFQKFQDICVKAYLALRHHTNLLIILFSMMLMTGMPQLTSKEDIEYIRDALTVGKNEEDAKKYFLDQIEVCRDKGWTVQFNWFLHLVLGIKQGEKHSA", "assay": "PI3 kinase phosphorylation assay (Biological Method 1), Ki γ", "type": "biochemical", "conditions": "Table 2, compounds of formula X", "experimental": "(§1) The compounds of the invention were synthesized according to the examples provided above. PI3K inhibitory (IC50) values of the compounds were determined according to Biological Method 1.\n(§2) Assay 1: Homogenous Solution Phase Assay\n(§3) Compounds to be tested are dissolved in DMSO and directly distributed into 384-well flashplates at 1.25 μL per well. To start the reaction, 20 μL of 6 nM PI3 kinase are added into each well followed by 20 μL of 400 nM ATP containing a trace of radiolabeled ATP and 900 nM 1-alpha-phosphatidylinositol (PI). The plates are briefly centrifuged to remove any air gap. The reaction is performed for 15 minutes and then stopped by the addition of 20 μL of 100 mM EDTA. The stopped reaction is incubated overnight at RT to allow the lipid substrate to bind by hydrophobic interaction to the surface of the flashplate. The liquid in the wells is then washed away, and the labeled substrate is detected with scintillation counting.\n(§4) Assay 2: One Step Solid Phase Assay\n(§5) This method is similar to Assay 1 except that the lipid substrate (1-alpha-phosphatidylinositol (PI)) is first dissolved in a coating buffer and incubated on flashplate at room temperature overnight to allow the lipid substrate to bind by hydrophobic interaction to the surface of the flashplate. Unbound substrate is then washed away. On the day of assay, 20 μL of 6 nM PI3 kinase are added into each well followed by 20 μL of 400 nM ATP containing trace of radiolabeled ATP. Compounds are added together with enzyme and ATP to the lipid-coated plates. The plates are briefly centrifuged to remove any air gap. The reaction is performed for two to three hours. The reaction is stopped by addition of 20 μL of 100 mM EDTA or by immediate plate washing. Phosphorylated lipid substrate is detected by scintillation counting.\n(§6) Assay 3: ATP Depletion Assay\n(§7) Compounds to be tested are dissolved in DMSO and directly distributed into a black 384-well plate at 1.25 μL per well. To start the reaction, 25 μL of 10 nM PI3 kinase and 5 μg/mL 1-alpha-phosphatidylinositol (PI) are added into each well followed by 25 μL of 2 μM ATP. The reaction is performed until approx 50% of the ATP is depleted, and then stopped by the addition of 25 μL of KinaseGlo solution. The stopped reaction is incubated for 5 minutes and the remaining ATP is then detected via luminescence.", "units": {"Ki": "µM"}}
{"smiles": "O=C(NCCc1nnn(CCF)n1)Nc1cn2cc(-c3cncc(C(F)(F)F)c3)ccc2n1", "note": "[Example 1-35, 1-{2-[2-(2-Fluoro-ethyl)-2H-tetrazol-5-yl]-ethyl}-3-[6-(5-trifluoromethyl-pyridin-3-yl)-imidazo[1,2-a]pyridin-2-yl]-urea]", "Ki": 0.002}
{"smiles": "Cn1nnc(CCNC(=O)Nc2cn3cc(-c4cncc(C(F)(F)F)c4)ccc3n2)n1", "note": "[Example 1-38, 1-[2-(2-Methyl-2H-tetrazol-5-yl)-ethyl]-3-[6-(5-trifluoromethyl-pyridin-3-yl)-imidazo[1,2-a]pyridin-2-yl]-urea]", "Ki": 0.012}
{"smiles": "Cc1ccccc1-c1cncc(-c2ccc3nc(NC(=O)NCCc4nnn(C(C)C)n4)cn3c2)c1", "note": "[Example 1-39, 1-[2-(2-Isopropyl-2H-tetrazol-5-yl)-ethyl]-3-[6-(5-o-tolyl-pyridin-3-yl)-imidazo[1,2-a]pyridin-2-yl]urea]", "Ki": 1.12}
{"smiles": "CCn1nnc(CCNC(=O)Nc2cn3cc(-c4cnn(C)c4)ccc3n2)n1", "note": "[Example 1-40, 1-[2-(2-Ethyl-2H-tetrazol-5-yl)-ethyl]-3-[6-(1-methyl-1H-pyrazol-4-yl)-imidazo[1,2-a]pyridin-2-yl]urea]", "Ki": 0.456}
{"smiles": "CCn1nnc(CCNC(=O)Nc2cn3cc(-c4cncc5ccccc45)ccc3n2)n1", "note": "[Example 1-42, 1-[2-(2-Ethyl-2H-tetrazol-5-yl)-ethyl]-3-(6-isoquinolin-4-yl-imidazo[1,2-a]pyridin-2-yl)-urea]", "Ki": 0.158}
{"smiles": "CC(=O)c1cncc(-c2ccc3nc(NC(=O)NCCc4nnn(C(C)C)n4)cn3c2)c1", "note": "[Example 1-43, 1-[6-(5-Acetyl-pyridin-3-yl)-imidazo[1,2-a]pyridin-2-yl]-3-[2-(2-isopropyl-2H-tetrazol-5-yl)-ethyl]urea]", "Ki": 0.008}
{"smiles": "CCn1nnc(CCNC(=O)Nc2cn3cc(Br)ccc3n2)n1", "note": "[Example 1-45, 1-(6-Bromo-imidazo[1,2-a]pyridin-2-yl)-3-[2-(2-ethyl-2H-tetrazol-5-yl)-ethyl]-urea]", "Ki": 0.911}
{"smiles": "Cc1cc(NC(=O)CCNC(=O)Nc2cn3cc(Br)ccc3n2)no1", "note": "[Example 1-46, 3-[3-(6-Bromo-imidazo[1,2-a]pyridin-2-yl)-ureido]-N-(5-methyl-isoxazo-3-yl)-propionamide]", "Ki": 4.98}
{"target": "PI3K γ (Homo sapiens, UniProt P48736)", "assay": "PI3 kinase phosphorylation assay (Biological Method 1), Ki γ", "type": "biochemical", "conditions": "Table 3, compounds of formula XI", "experimental": "as §1, §2, §3, §4, §5, §6, §7", "units": {"Ki": "µM"}}
{"smiles": "O=C(NCCc1nnn(CCF)n1)Nc1nc2ccc(-c3cccnc3)cc2s1", "note": "[Example 2-1, 1-{2-[2-(2-Fluoro-ethyl)-2H-tetrazol-5-yl]-ethyl}-3-(6-pyridin-3-yl-benzothiazol-2-yl)-urea]", "Ki": 0.008}
{"smiles": "COc1ccc(-c2ccc3nc(NC(=O)NCCc4nnn(CCF)n4)sc3c2)cn1", "note": "[Example 2-2, 1-{2-[2-(2-Fluoro-ethyl)-2H-tetrazol-5-yl]-ethyl}-3-[6-(6-methoxy-pyridin-3-yl)-benzothiazol-2-yl]-urea]", "Ki": 0.02}
{"smiles": "COc1ccc(-c2ccc3nc(NC(=O)NCCN(C)C)sc3c2)cn1", "note": "[Example 2-3, 1-(2-Dimethylamino-ethyl)-3-[6-(6-methoxy-pyridin-3-yl)-benzothiazol-2-yl]urea]", "Ki": 0.038}
{"smiles": "COc1ccc(-c2ccc3nc(NC(=O)NCCO)sc3c2)cn1", "note": "[Example 2-4, 1-(2-Hydroxy-ethyl)-3-[6-(6-methoxy-pyridin-3-yl)-benzothiazol-2-yl]-urea]", "Ki": 0.038}
{"smiles": "COc1ccc(-c2ccc3nc(NC(=O)NCc4cccnc4)sc3c2)cn1", "note": "[Example 2-5, 1-[6-(6-Methoxy-pyridin-3-yl)-benzothiazol-2-yl]-3-pyridin-3-ylmethyl-urea]", "Ki": 0.149}
{"smiles": "CCNC(=O)Nc1nc2ccc(-c3ccc(OC)nc3)cc2s1", "note": "[Example 2-6, 1-Ethyl-3-[6-(6-methoxy-pyridin-3-yl)-benzothiazol-2-yl]urea]", "Ki": 0.406}
{"smiles": "O=C(NCCc1nnn(CCF)n1)Nc1nc2ccc(-c3cncc(C(=O)N4CCOCC4)c3)cc2s1", "note": "[Example 2-7, 1-{2-[2-(2-Fluoro-ethyl)-2H-tetrazol-5-yl]-ethyl}-3-{6-[5-(morpholine-4-carbonyl)-pyridin-3-yl]-benzothiazol-2-yl}-urea]", "Ki": 0.0055}
{"smiles": "O=C(NCCc1nnn(CCF)n1)Nc1nc2ccc(-c3cncc(C(F)(F)F)c3)cc2s1", "note": "[Example 2-8, 1-{2-[2-(2-Fluoro-ethyl)-2H-tetrazol-5-yl]-ethyl}-3-[6-(5-trifluoromethyl-pyridin-3-yl)-benzothiazol-2-yl]urea]", "Ki": 0.016}
{"smiles": "CCn1nnc(CCNC(=O)Nc2nc3ccc(-c4cncc(C(F)(F)F)c4)cc3s2)n1", "note": "[Example 2-9, 1-[2-(2-Ethyl-2H-tetrazol-5-yl)-ethyl]-3-[6-(5-trifluoromethyl-pyridin-3-yl)-benzothiazol-2-yl]-urea]", "Ki": 0.06}
{"smiles": "CC(C)n1nnc(CCNC(=O)Nc2nc3ccc(-c4cncc(C(F)(F)F)c4)cc3s2)n1", "note": "[Example 2-10, 1-[2-(2-Isopropyl-2H-tetrazol-5-yl)-ethyl]-3-[6-(5-trifluoromethyl-pyridin-3-yl)-benzothiazol-2-yl]urea]", "Ki": 0.092}
{"smiles": "CCc1nnn(CCNC(=O)Nc2nc3ccc(-c4cncc(C(F)(F)F)c4)cc3s2)n1", "note": "[Example 2-11, 1-[2-(5-Ethyl-tetrazol-2-yl)-ethyl]-3-[6-(5-trifluoromethyl-pyridin-3-yl)-benzothiazol-2-yl]urea]", "Ki": 0.242}
{"smiles": "CCn1cnc(CCNC(=O)Nc2nc3ccc(-c4cncc(C(F)(F)F)c4)cc3s2)c1", "note": "[Example 2-12, 1-[2-(1-Ethyl-1H-imidazol-4-yl)-ethyl]-3-[6-(5-trifluoromethyl-pyridin-3-yl)-benzothiazol-2-yl]-urea]", "Ki": 0.142}
{"target": "PI3K γ (Homo sapiens, UniProt P48736)", "assay": "PI3 kinase phosphorylation assay (Biological Method 1), Ki γ", "type": "biochemical", "conditions": "Table 4", "experimental": "as §1, §2, §3, §4, §5, §6, §7", "units": {"Ki": "µM"}}
{"smiles": "CCn1nnc(CCNC(=O)Nc2cn3nc(-c4cncc(C(F)(F)F)c4)ccc3n2)n1", "note": "[Example 3-1, 1-[2-(2H-Ethyl-2H-tetrazole-5-yl)-ethyl]-3-[6-(5-trifluoromethyl-pyridin-3-yl)-imidazo[1,2-b]pyridazin-2-yl]-urea]", "Ki": 0.012}
{"smiles": "CCn1nnc(CCNC(=O)Nc2cn3nc(-c4cncc(C#N)c4)ccc3n2)n1", "note": "[Example 3-2, 1-[6-(5-Cyano-pyridin-3-yl)-imidazo[1,2-b]pyridazin-2-yl]-3-[2-(2-ethyl-2H-tetrazol-5-yl)-ethyl]-urea]", "Ki": 0.031}
{"smiles": "CCn1nnc(CCNC(=O)Nc2cn3nc(-c4cccnc4)ccc3n2)n1", "note": "[Example 3-3, 1-[6-(pyridin-3-yl)-imidazo[1,2-b]pyridazin-2-yl]-3-[2-(2-ethyl-2H-tetrazol-5-yl)-ethyl]-urea]", "Ki": 0.031}
{"smiles": "CCn1nnc(CCNC(=O)Nc2cn3cc(-c4cncc(C(F)(F)F)c4)ncc3n2)n1", "note": "[Example 3-4, 1-[2-(2-Ethyl-2H-tetrazol-5-yl)-ethyl]-3-[6-(5-trifluoromethyl-pyridin-3-yl)-imidazo[1,2-a]pyrazin-2-yl]-urea]", "Ki": 0.027}
{"smiles": "CCn1nnc(CCNC(=O)Nc2cn3cc(-c4cncc(C#N)c4)ncc3n2)n1", "note": "[Example 3-5, 1-[6-(5-Cyano-pyridin-3-yl)-imidazo[1,2-a]pyrazin-2-yl]-3-[2-(2-ethyl-2H-tetrazol-5-yl)-ethyl]-urea]", "Ki": 0.098}
{"smiles": "CCn1nnc(CCNC(=O)Nc2cn3cc(-c4cccnc4)ncc3n2)n1", "note": "[Example 3-6, 1-[2-(2-Ethyl-2H-tetrazol-5-yl)-ethyl]-3-(6-pyridin-3-yl-imidazo[1,2-a]pyrazin-2-yl)-urea]", "Ki": 0.082}
{"smiles": "CCn1nnc(CCNC(=O)Nc2nc3ccc(-c4cncc(C(F)(F)F)c4)cn3n2)n1", "note": "[Example 3-7, 1-[2-(2-Ethyl-2H-tetrazol-5-yl)-ethyl]-3-[6-(5-trifluoromethyl-pyridin-3-yl)-[1,2,4]triazolo[1,5-a]pyridin-2-yl]-urea]", "Ki": 0.376}
